Where a name gives a salt, the structure may show the parent alone.
Experiments:
Blutgefäße [1] = conditions: as described in EP-B 14 951; cited from earlier work
[2] = target: β₂-Rezeptoren (Rezeptoren der glatten Muskulatur) (Homo sapiens, UniProt P07550); assay: beta-2 adrenergic receptor blockade (no method described); conditions: qualitative statement
Augeninnendruck = assay: lowering of intraocular pressure on local application (no method described); assay type: in vivo; conditions: lokale Applikation, qualitative statement
[3] = target: β₁-Rezeptoren (Rezeptoren des Herzmuskels) (Homo sapiens, UniProt P08588); assay: beta-1 adrenergic receptor blockade (no method described); conditions: qualitative statement
Chain of β₁-Rezeptoren (Rezeptoren des Herzmuskels) (P08588 whole entry): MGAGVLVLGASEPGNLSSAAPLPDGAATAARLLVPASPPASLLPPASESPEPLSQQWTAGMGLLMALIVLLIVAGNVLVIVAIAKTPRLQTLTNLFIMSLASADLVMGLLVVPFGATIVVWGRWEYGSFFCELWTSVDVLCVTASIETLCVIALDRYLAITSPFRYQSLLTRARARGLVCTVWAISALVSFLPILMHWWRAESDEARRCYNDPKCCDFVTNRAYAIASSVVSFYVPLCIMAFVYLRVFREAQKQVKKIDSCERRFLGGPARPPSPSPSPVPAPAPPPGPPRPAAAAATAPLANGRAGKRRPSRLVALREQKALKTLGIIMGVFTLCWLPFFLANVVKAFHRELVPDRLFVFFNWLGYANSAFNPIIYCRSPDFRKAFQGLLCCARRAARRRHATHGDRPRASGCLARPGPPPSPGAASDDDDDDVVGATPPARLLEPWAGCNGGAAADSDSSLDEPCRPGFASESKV

Blutgefäße [4] = assay: vasodilating effect (no method described); conditions: qualitative statement, enantiomers
[5] = listed as erfindungsgemäße Substanz

Chain of β₂-Rezeptoren (Rezeptoren der glatten Muskulatur) (P07550 whole entry): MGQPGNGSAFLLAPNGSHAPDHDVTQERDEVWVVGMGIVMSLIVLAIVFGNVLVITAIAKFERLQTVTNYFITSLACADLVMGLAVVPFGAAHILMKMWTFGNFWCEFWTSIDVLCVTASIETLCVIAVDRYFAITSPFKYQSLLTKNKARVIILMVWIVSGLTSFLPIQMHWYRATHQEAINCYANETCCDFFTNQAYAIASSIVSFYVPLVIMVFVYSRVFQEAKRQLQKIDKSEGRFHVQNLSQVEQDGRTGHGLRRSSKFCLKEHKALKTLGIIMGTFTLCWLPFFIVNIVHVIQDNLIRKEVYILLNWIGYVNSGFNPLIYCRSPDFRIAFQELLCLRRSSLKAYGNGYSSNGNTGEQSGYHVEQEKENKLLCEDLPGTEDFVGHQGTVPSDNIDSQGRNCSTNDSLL

| β₂-blockierende Wirkung ([2]; listed as Beispiel 8 b) | β₂-blockierende Wirkung [2, 5] | Selektivität β₁ gegenüber β₂ (cardioselektiv) ([3]; β₁ versus β₂) | β₁-blockierende Wirkung ([3]; listed as Beispiel 8 b) | β₁-blockierende Wirkung [3, 5] | β₂-blockierende Wirkung [2] | β₁-blockierende Wirkung [3] | SMILES | vasodilatierende Eigenschaften (Blutgefäße [1]) | augeninnendrucksenkende Wirkung (Augeninnendruck) | augeninnendrucksenkende Wirkung (Augeninnendruck; [5]) | vasodilatierende / blutgefäßerweiternde Wirkung (Blutgefäße [4]) |
| --- | --- | --- | --- | --- | --- | --- | --- | --- | --- | --- | --- |
| nicht oder nur wenig beeinflußt | nur sehr geringe β₂-blockierende Wirkung | cardioselektiv | vorwiegend eine β₁-blockierende Wirkung | β₁-blockierende Wirkung besitzt | – | – | COc1ccccc1OCCNCC(O)COc1cccc2[nH]nnc12 (racemic) [racemische Substanz, 1-(Benztriazol-4-yloxy)-3-(2-(2-methoxyphenoxy)-ethylamino)-2-propanol] | vasodilatierende Eigenschaften | in extrem geringer Konzentration | im gleichen Maße vorhanden ist wie bei üblichen bekannten β-blockierenden Verbindungen | – |
| – | – | – | – | – | keine β₂-blockierende | keine β₁-blockierende | COc1ccccc1OCCNC[C@@H](O)COc1cccc2[nH]nnc12 (single isomer, unassigned) [R-Enantiomere] | – | augendrucksenkenden Wirkung | – | – |
| – | – | – | – | – | – | praktisch die gesamte | COc1ccccc1OCCNC[C@H](O)COc1cccc2[nH]nnc12 (single isomer, unassigned) [S-Enantiomere, S-(-)-1-(Benztriazol-4-yloxy)-3-(2-(2-methoxyphenoxy)-ethyl-amino)-2-propanol-hydrochlorid] | – | – | – | blutgefäßerweiternde |

Reference: EP0231444A2, “Optically active isomers and racemate of 1-(benztriazol-4-yloxy)-3-[2-(2-methoxyphenoxy)-ethylamino]-2-propanol, process for their preparation as well as their use as medicaments” (BOEHRINGER MANNHEIM GMBH, priority 1985, dated 1987)
